Results reported in paper PMC9863556, “Influence of Green Synthesized Zinc Oxide Nanoparticles on Molecular Interaction and Comparative Binding of Azure Dye with Chymotrypsin: Novel Nano-Conjugate for Cancer Phototherapy” (Pharmaceutics, 2022).

Target: α-chymotrypsin (α-Chymo) (Bos taurus, UniProt P00766)
Assay: UV-Visible titration (Benesi-Hildebrand binding constant), supported by tryptophan fluorescence quenching (Ksv […] at […] K, static) and CD

Kd: 17.5 µM
Compound: CNc1ccc2nc3ccc(N)cc3[s+]c2c1 [AzC, AzureC]
